Experiments:
[1] = xn = mol fraction of the nth substance listed; settings: 101 kPa, Liquid; for viscosity: Capillary tube (Ostwald / Ubbelohde) method; for mass density: Vibrating tube method
[2] = excess molar enthalpy (molar enthalpy of mixing); xn = mol fraction of the nth substance listed; settings: 303.15 K, 101 kPa, Liquid, Calvet calorimetry

CCOC(=O)OCC [diethyl carbonate] + CCO
[1]
Settings | mass density [kg/m3] | viscosity [mPa·s]
288.15 K, x1 = 0.05544 | 813.88 | 1.181
288.15 K, x1 = 0.1 | 828.53 | 1.111
288.15 K, x1 = 0.197 | 856.33 | 0.996
288.15 K, x1 = 0.2998 | 881.02 | 0.917
288.15 K, x1 = 0.4062 | 902.55 | 0.864
288.15 K, x1 = 0.5039 | 919.48 | 0.838
288.15 K, x1 = 0.613 | 935.91 | 0.821
288.15 K, x1 = 0.6939 | 946.73 | 0.815
288.15 K, x1 = 0.7942 | 958.83 | 0.819
288.15 K, x1 = 0.8992 | 970.29 | 0.834
288.15 K, x1 = 0.9744 | 977.89 | 0.856
293.15 K, x1 = 0.05208 | 808.2 | 1.115
293.15 K, x1 = 0.09645 | 822.76 | 1.045
293.15 K, x1 = 0.1983 | 851.8 | 0.93
293.15 K, x1 = 0.2931 | 874.46 | 0.867
293.15 K, x1 = 0.4089 | 897.78 | 0.818
293.15 K, x1 = 0.4945 | 912.58 | 0.794
293.15 K, x1 = 0.6111 | 930.21 | 0.777
293.15 K, x1 = 0.6787 | 939.26 | 0.771
293.15 K, x1 = 0.7692 | 950.39 | 0.77
293.15 K, x1 = 0.8767 | 962.34 | 0.779
293.15 K, x1 = 0.9444 | 969.33 | 0.791
303.15 K, x1 = 0.04589 | 797.14 | 0.937
303.15 K, x1 = 0.09693 | 813.63 | 0.88
303.15 K, x1 = 0.1943 | 840.98 | 0.799
303.15 K, x1 = 0.2843 | 862.32 | 0.747
303.15 K, x1 = 0.4098 | 887.33 | 0.703
303.15 K, x1 = 0.5128 | 904.7 | 0.686
303.15 K, x1 = 0.6176 | 920.01 | 0.678
303.15 K, x1 = 0.6907 | 929.62 | 0.675
303.15 K, x1 = 0.7896 | 941.46 | 0.675
303.15 K, x1 = 0.8863 | 951.96 | 0.681
303.15 K, x1 = 0.9676 | 960.23 | 0.694
313.15 K, x1 = 0.04956 | 789.32 | 0.761
313.15 K, x1 = 0.09649 | 804.16 | 0.715
313.15 K, x1 = 0.207 | 834.28 | 0.647
313.15 K, x1 = 0.2847 | 852.21 | 0.618
313.15 K, x1 = 0.3982 | 874.66 | 0.591
313.15 K, x1 = 0.5049 | 892.56 | 0.578
313.15 K, x1 = 0.6079 | 907.66 | 0.574
313.15 K, x1 = 0.6227 | 909.67 | 0.573
313.15 K, x1 = 0.6895 | 918.3 | 0.575
313.15 K, x1 = 0.7826 | 929.4 | 0.58
313.15 K, x1 = 0.8924 | 941.3 | 0.594
313.15 K, x1 = 0.9563 | 947.79 | 0.606

[2]
Settings | excess molar enthalpy [kcal/mol]
x1 = 0.06432 | 0.0943
x1 = 0.1113 | 0.152
x1 = 0.1833 | 0.226
x1 = 0.2439 | 0.276
x1 = 0.3034 | 0.317
x1 = 0.3739 | 0.356
x1 = 0.4258 | 0.378
x1 = 0.5066 | 0.395
x1 = 0.5445 | 0.395
x1 = 0.64 | 0.39
x1 = 0.7134 | 0.366
x1 = 0.7663 | 0.335
x1 = 0.8243 | 0.285
x1 = 0.8998 | 0.189
x1 = 0.9557 | 0.0946

CCOC(=O)OCC [diethyl carbonate] + CCCO
[1]
Settings | mass density [kg/m3] | viscosity [mPa·s]
288.15 K, x1 = 0.05124 | 821.17 | 2.135
288.15 K, x1 = 0.07262 | 826.61 | 2.007
288.15 K, x1 = 0.1063 | 834.89 | 1.833
288.15 K, x1 = 0.1511 | 845.43 | 1.638
288.15 K, x1 = 0.2122 | 858.98 | 1.459
288.15 K, x1 = 0.2638 | 869.76 | 1.33
288.15 K, x1 = 0.31 | 878.92 | 1.248
288.15 K, x1 = 0.4016 | 895.92 | 1.115
288.15 K, x1 = 0.5147 | 915.01 | 1
288.15 K, x1 = 0.5916 | 926.96 | 0.947
288.15 K, x1 = 0.5994 | 928.13 | 0.937
288.15 K, x1 = 0.6906 | 941.32 | 0.905
288.15 K, x1 = 0.7887 | 954.53 | 0.871
288.15 K, x1 = 0.8694 | 964.81 | 0.859
288.15 K, x1 = 0.9428 | 973.71 | 0.865
293.15 K, x1 = 0.04957 | 816.57 | 1.906
293.15 K, x1 = 0.1001 | 829.1 | 1.657
293.15 K, x1 = 0.2101 | 853.96 | 1.315
293.15 K, x1 = 0.3074 | 873.57 | 1.132
293.15 K, x1 = 0.4038 | 891.34 | 1.01
293.15 K, x1 = 0.5097 | 909.09 | 0.92
293.15 K, x1 = 0.6002 | 923.04 | 0.868
293.15 K, x1 = 0.6963 | 936.76 | 0.829
293.15 K, x1 = 0.8059 | 951.25 | 0.804
293.15 K, x1 = 0.8817 | 960.76 | 0.796
293.15 K, x1 = 0.9433 | 968.14 | 0.796
303.15 K, x1 = 0.05148 | 808.69 | 1.495
303.15 K, x1 = 0.1008 | 820.63 | 1.329
303.15 K, x1 = 0.2044 | 843.53 | 1.087
303.15 K, x1 = 0.3161 | 865.57 | 0.93
303.15 K, x1 = 0.4048 | 881.45 | 0.847
303.15 K, x1 = 0.4459 | 888.41 | 0.818
303.15 K, x1 = 0.6 | 912.35 | 0.743
303.15 K, x1 = 0.6892 | 924.91 | 0.715
303.15 K, x1 = 0.792 | 938.39 | 0.697
303.15 K, x1 = 0.8809 | 949.35 | 0.692
303.15 K, x1 = 0.9364 | 955.95 | 0.692
313.15 K, x1 = 0.04668 | 798.89 | 1.214
313.15 K, x1 = 0.1008 | 811.63 | 1.071
313.15 K, x1 = 0.2119 | 835.52 | 0.885
313.15 K, x1 = 0.3075 | 854.04 | 0.783
313.15 K, x1 = 0.4133 | 872.66 | 0.71
313.15 K, x1 = 0.5019 | 886.95 | 0.668
313.15 K, x1 = 0.5998 | 901.56 | 0.637
313.15 K, x1 = 0.6913 | 914.21 | 0.618
313.15 K, x1 = 0.7902 | 926.98 | 0.607
313.15 K, x1 = 0.8456 | 933.82 | 0.608
313.15 K, x1 = 0.8699 | 936.73 | 0.606
313.15 K, x1 = 0.8903 | 939.21 | 0.607
313.15 K, x1 = 0.9488 | 946.12 | 0.61

[2]
Settings | excess molar enthalpy [kcal/mol]
x1 = 0.05945 | 0.103
x1 = 0.1227 | 0.196
x1 = 0.1956 | 0.281
x1 = 0.2498 | 0.328
x1 = 0.2677 | 0.344
x1 = 0.3018 | 0.371
x1 = 0.3762 | 0.42
x1 = 0.4569 | 0.441
x1 = 0.4906 | 0.446
x1 = 0.5642 | 0.451
x1 = 0.6182 | 0.442
x1 = 0.6932 | 0.417
x1 = 0.7453 | 0.38
x1 = 0.824 | 0.312
x1 = 0.872 | 0.248
x1 = 0.9168 | 0.174
